Patent US20250282736A1, “SMALL MOLECULE MODULATORS OF HUMAN PREGNANE X RECEPTOR” (ST. JUDE CHILDREN'S RESEARCH HOSPITAL, priority 2022, published 2025)
Read-outs that look alike come from different tables or passages of the source.

Key:
hPXR [1] = biological target: T1, hPXR (Homo sapiens (Human), UniProt O75469); test: cell-based hPXR agonistic assay; details: for Agonist (% activation at 10 μM): rifampicin at 10 μM as 100% activation, DMSO (0.3%) as 0%
hPXR [2] = biological target: T1, hPXR; test: hPXR binding assay; details: for inhibition at 10 µM: read-out: Binding (% inhibition at 10 μM)
hPXR [3] = biological target: T1, hPXR; test: cell-based hPXR antagonistic assay; details: for inhibition at 10 µM: read-out: Antagonist (% inhibition at 10 μM)
hPXR [4] = biological target: T1, hPXR; test: cell-based hPXR inverse agonistic assay; details: for inhibition at 10 µM: read-out: Inverse agonist (% inhibition at 10 μM)
[5] = read-out: Binding (IC50/μM), hPXR binding assay

T1 sequence (O75469 whole entry): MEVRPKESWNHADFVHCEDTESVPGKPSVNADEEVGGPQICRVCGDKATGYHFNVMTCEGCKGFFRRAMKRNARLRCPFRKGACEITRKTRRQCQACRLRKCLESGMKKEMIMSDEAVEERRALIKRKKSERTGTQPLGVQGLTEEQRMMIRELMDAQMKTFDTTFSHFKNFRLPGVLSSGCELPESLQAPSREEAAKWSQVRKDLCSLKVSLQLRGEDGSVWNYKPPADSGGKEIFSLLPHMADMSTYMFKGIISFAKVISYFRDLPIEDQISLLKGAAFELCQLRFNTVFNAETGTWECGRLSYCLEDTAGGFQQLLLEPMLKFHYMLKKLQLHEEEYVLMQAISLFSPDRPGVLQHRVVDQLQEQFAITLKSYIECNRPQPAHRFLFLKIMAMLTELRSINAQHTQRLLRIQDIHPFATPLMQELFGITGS

Compound | EC50 (hPXR [1]) | IC50 (hPXR [2]) | IC50 (hPXR [3]) | inhibition at 10 µM (hPXR [3]) | IC50 (hPXR [4]) | inhibition at 10 µM (hPXR [4]) | Agonist (% activation at 10 μM) (hPXR [1]) | EC50 (hPXR [1]; read-out: Agonist (EC50/μM), cell-based hPXR agonistic assay) | inhibition at 10 µM (hPXR [2]) | IC50 (hPXR [2]; [5])
COc1ccc(OC)c(-n2nnc(C(=O)Nc3cc(OC(=O)c4nnn(-c5cc(OC)ccc5OC)c4C)cc(C(C)(C)C)c3)c2C)c1 [D13, 3-(tert-butyl)-5-(1-(2,5-dimethoxyphenyl)-5-methyl-1H-1,2,3-triazole-4-carboxamido)phenyl 1-(2,5-dimethoxyphenyl)-5-methyl-1H-1,2,3-triazole-4-carboxylate] | > 30 µM | > 30 µM | 0.83 ± 0.11 µM | 68% | 0.15 µM | 93% | – | – | – | –
COc1ccc(OC)c(-n2nnc(C(=O)Nc3cc(C(C)(C)C)ccc3NC(C)=O)c2C)c1 [B38] | – | – | > 30 µM | – | > 30 µM | – | (60 ± 13)% | 0.99 ± 0.22 µM | 60% | 3.22 ± 2.29 µM
COc1ccc(OC)c(-n2nnc(C(=O)Nc3ccc(CN4CCN(C)CC4)c(C(F)(F)F)c3)c2C)c1 [A21] | > 30 µM | > 30 µM | > 30 µM | – | > 30 µM | – | – | – | – | –
COc1ccc(OC)c(-n2nnc(C(=O)Nc3cc(OCCOCCOCCOCCN)cc(C(C)(C)C)c3)c2C)c1 [D35] | > 30 µM | > 30 µM | 19.7 ± 7.63 µM | 84% | > 30 µM | – | – | – | – | –
COc1ccc(OC)c(-n2nnc(C(=O)Nc3cccc(N4CCOCC4)c3)c2C)c1 [A14] | > 30 µM | > 30 µM | > 30 µM | – | > 30 µM | – | – | – | – | –
COc1ccc(OC)c(-n2nnc(C(=O)Nc3cc(C(C)(C)C)ccc3OCC(=O)OC(C)(C)C)c2C)c1 [B24, tert-butyl 2-(4-(tert-butyl)-2-(1-(2,5-dimethoxyphenyl)-5-methyl-1H-1,2,3-triazole-4-carboxamido)phenoxy)acetate] | 0.27 µM | – | > 30 µM | – | > 30 µM | – | (77 ± 1)% | – | 74% | 0.5 ± 0.2 µM
COc1ccc(OC)c(-n2nnc(C(=O)Nc3cccc(-n4cccc4)c3)c2C)c1 [A11] | > 30 µM | – | > 30 µM | – | > 30 µM | – | – | – | 24% | 1.41 ± 0.69 µM

More lines, now with the values ahead:

EC50 (hPXR [1]) | IC50 (hPXR [2]) | IC50 (hPXR [3]) | inhibition at 10 µM (hPXR [3]) | IC50 (hPXR [4]) | inhibition at 10 µM (hPXR [4]) | Agonist (% activation at 10 μM) (hPXR [1]) | EC50 (hPXR [1]; read-out: Agonist (EC50/μM), cell-based hPXR agonistic assay) | inhibition at 10 µM (hPXR [2]) | IC50 (hPXR [2]; [5]) | Compound
0.32 ± 0.1 µM | > 30 µM | > 30 µM | – | > 30 µM | – | (30 ± 7)% | – | – | – | COc1ccc(-n2nnc(C(=O)Nc3cccc(N4CCCC4)c3)c2C)cc1 [E1, 1-(4-methoxyphenyl)-5-methyl-N-(3-(pyrrolidin-1-yl)phenyl)-1H-1,2,3-triazole-4-carboxamide]
> 30 µM | – | 0.48 ± 0.14 µM | 103% | 0.18 µM | 80% | – | – | 40% | 0.14 µM | COc1cc(NC(=O)c2nnn(-c3cc(Cl)ccc3OC)c2C)cc(C(C)(C)C)c1 [F5]
1.44 ± 0.27 µM | > 30 µM | > 30 µM | – | > 30 µM | – | (35 ± 3)% | – | – | – | COc1ccc(-n2nnc(C(=O)Nc3ccc(C(C)(C)C)cc3)c2C)cc1 [E6]
> 30 µM | – | 0.15 µM | 104% | 0.044 ± 0.014 µM | 79% | – | – | 87% | 0.25 µM | CCCCNc1cc(NC(=O)c2nnn(-c3cc(C)ccc3OC)c2C)cc(C(C)(C)C)c1 [G6]
0.021 µM | – | > 30 µM | – | > 30 µM | – | (136 ± 26)% | – | 97% | 0.0147 ± 0.0026 µM | COc1ccc(OC)c(-n2nnc(S(=O)(=O)Nc3cccc(C(C)(C)C)c3)c2C)c1 [K6, N-(3-(tert-butyl)phenyl)-1-(2,5-dimethoxyphenvl)-5-methyl-1H-1,2,3-triazole-4-sulfonamide]
0.39 µM | – | 10.7 ± 2.39 µM | 25% | > 30 µM | – | (68 ± 5)% | – | 92% | 0.33 µM | COc1ccc(OC)c(-n2nnc(NS(=O)(=O)c3ccc(C(C)(C)C)cc3)c2C)c1 [K7]
